Results reported in paper PMC5386260, “Acute development of cortical porosity and endosteal naïve bone formation from the daily but not weekly short-term administration of PTH in rabbit” (PLoS ONE, 2017).

Tests used:
endosteal bone collagen = details: rabbit, in vivo
Procedure: (§1) Calcein (Dojindo Laboratories, Kumamoto, Japan) was subcutaneously injected into each animal at a dose of 10 mg/kg body weight on days 13 and 5 before sacrifice for bone double labeling (1-7-1-3). After the dosing period, the animals were euthanized by exsanguination under anesthesia using thiopental. The left and right tibiae were collected for a micro-CT analysis and histomorphometry, respectively. The kidneys, thyroid and parathyroid of all animals were collected and fixed in 10% neutral buffered formalin for a histopathological examination. The left tibiae were packed in plastic bags and stored at -30°C until use in a micro-CT analysis and mechanical testing. […]
An upright multi-photon excited microscopy system (A1RMP, Nikon Corporation, Japan) situated at the Imaging core facility of The Institute of Medical Science, The University of Tokyo was employed to acquire bone collagen-derived SHG signals and two-photon excited auto-fluorescence signals from Calcein-labeled undecalcified bone sections. […] The detection wavelengths were 420–425 nm and 500–550 nm for the acquisition of collagen-derived SHG signals and auto-fluorescence signals from soft tissue, respectively. […]

[1] = test system: endosteal surface of rabbit tibiae; assay: DIC bright field and deconvolution fluorescence imaging of tibia sections; format: in vivo; details: daily administration (D20 and D40), 4 weeks
Procedure: as §1
Calcein-labeled undecalcified bone sections were subjected to imaging acquisition using a microscopy system, ECLIPSE Ni (Nikon, Tokyo, Japan) equipped with differential interference contrast microscopy (DIC) and objectives (Nikon), as follows: Plan Apo λ 10x (numerical aperture [N.A.] = 0.45), Plan Apo λ 20x (N.A. = 0.75), and Plan Apo λ 40x (N.A. = 0.95). The fluorescence signals were obtained using filter sets, GFP-B (excitation: 460–500 nm, DM: 505 nm, emission: 510–560 nm; Nikon) for calcein, and TxRed (excitation: 540–580 nm, DM: 595 nm, emission: 600–660 nm; Nikon) for auto-fluorescence derived from soft tissue. […] The fluorescence and DIC images were sequentially acquired, with a pixel size of 0.64 μm. […]

CC[C@H](C)[C@H](NC(=O)[C@H](CCC(=O)O)NC(=O)[C@H](CO)NC(=O)[C@@H](NC(=O)[C@@H](N)CO)C(C)C)C(=O)N[C@@H](CCC(N)=O)C(=O)N[C@@H](CC(C)C)C(=O)N[C@@H](CCSC)C(=O)N[C@@H](Cc1cnc[nH]1)C(=O)N[C@@H](CC(N)=O)C(=O)N[C@@H](CC(C)C)C(=O)NCC(=O)N[C@@H](CCCCN)C(=O)N[C@@H](Cc1cnc[nH]1)C(=O)N[C@@H](CC(C)C)C(=O)N[C@@H](CC(N)=O)C(=O)N[C@@H](CO)C(=O)N[C@@H](CCSC)C(=O)N[C@@H](CCC(=O)O)C(=O)N[C@@H](CCCN=C(N)N)C(=O)N[C@H](C(=O)N[C@@H](CCC(=O)O)C(=O)N[C@@H](Cc1c[nH]c2ccccc12)C(=O)N[C@@H](CC(C)C)C(=O)N[C@@H](CCCN=C(N)N)C(=O)N[C@@H](CCCCN)C(=O)N[C@@H](CCCCN)C(=O)N[C@@H](CC(C)C)C(=O)N[C@@H](CCC(N)=O)C(=O)N[C@@H](CC(=O)O)C(=O)N[C@H](C(=O)N[C@@H](Cc1cnc[nH]1)C(=O)N[C@@H](CC(N)=O)C(=O)N[C@@H](Cc1ccccc1)C(=O)O)C(C)C)C(C)C [TPTD, Teriparatide]
endosteal bone collagen pattern (3D-SHG) (endosteal bone collagen): amorphously short fibers
microscopic findings at the endosteal surface [1]: development of bone marrow fibrosis and poorly mineralized and disorganized bone formation
